{"source": "patent US12419877B2", "about": "“Solid forms of {[5-(3-chlorophenyl)-3-hydroxypyridine-2-carbonyl]amino}acetic acid, compositions, and uses thereof” (Akebia Therapeutics, Inc., priority 2013, dated 2025)", "key": {"[1]": {"assay": "Dynamic Vapour Sorption (DVS) with XRPD re-analysis", "format": "physicochemical", "method": "Dynamic Vapour Sorption (DVS) was performed on a DVS-1 dynamic vapour sorption balance by Surface Measurement Systems. Approximately 10-20 mg of sample was loaded into a wire mesh vapour sorption balance pan of the balance. The sample was subjected to a ramping profile from 20-90% relative humidity (RH) in 10% increments, maintaining the sample at each step until a stable weight had been achieved (99.5% step completion) or 1000 minutes had elapsed. After completion of the sorption cycle, the sample was dried using the same procedure, but all the way down to 0% RH and finally taken back to the starting point of 20% RH. The weight change during the sorption/desorption cycles were plotted, allowing for the hygroscopic nature of the sample to be determined. Following the DVS analysis, the solid was re-analysed by XRPD in order to determine whether there had been any change in physical form."}, "[2]": {"assay": "Solid form stability in slurries", "format": "physicochemical", "conditions": "slurries at high temperature"}}, "data": [{"molecule": "O=C(O)CNC(=O)c1ncc(-c2cccc(Cl)c2)cc1O", "note": "[Form B, {[5-(3-chlorophenyl)-3-hydroxypyridine-2-carbonyl]amino}acetic acid]", "values": [{"measurement": "water sorption at 90% RH", "setting": "[1]; DVS, 90% RH", "result": 0.33, "unit": "%"}, {"measurement": "XRPD analysis following DVS (change in physical form)", "setting": "[1]; after DVS sorption/desorption cycle", "result": "no change in form"}, {"measurement": "hygroscopicity (DVS)", "setting": "[1]; judged from water sorption at 90% RH", "result": "non-hygroscopic"}, {"measurement": "solid form stability", "setting": "[2]", "result": "metastable and can convert to Form A in slurries at high temperature"}]}]}
